Experimental data from ChEMBL document CHEMBL1130827, “Molecular lipophilicity potential by CLIP, a reliable tool for the description of the 3D distribution of lipophilicity: application to 3-phenyloxazolidin-2-one, a prototype series of reversible MAOA inhibitors” (Bioorg Med Chem Lett, 1998).
Blank lines part the entries; values can stand above or below the compound they belong to.

Experiments:
[1] = Partition coefficient (logP); format: physicochemical; settings: octanol/water
[2] = Logarithm of capacity factor was determined; format: ADME
[3] = target: T1, Amine oxidase [flavin-containing] A (Homo sapiens, UniProt P21397); test: Monoamine oxidase A inhibitory potency; settings: read-out: KiA
T1 sequence (P21397 whole entry): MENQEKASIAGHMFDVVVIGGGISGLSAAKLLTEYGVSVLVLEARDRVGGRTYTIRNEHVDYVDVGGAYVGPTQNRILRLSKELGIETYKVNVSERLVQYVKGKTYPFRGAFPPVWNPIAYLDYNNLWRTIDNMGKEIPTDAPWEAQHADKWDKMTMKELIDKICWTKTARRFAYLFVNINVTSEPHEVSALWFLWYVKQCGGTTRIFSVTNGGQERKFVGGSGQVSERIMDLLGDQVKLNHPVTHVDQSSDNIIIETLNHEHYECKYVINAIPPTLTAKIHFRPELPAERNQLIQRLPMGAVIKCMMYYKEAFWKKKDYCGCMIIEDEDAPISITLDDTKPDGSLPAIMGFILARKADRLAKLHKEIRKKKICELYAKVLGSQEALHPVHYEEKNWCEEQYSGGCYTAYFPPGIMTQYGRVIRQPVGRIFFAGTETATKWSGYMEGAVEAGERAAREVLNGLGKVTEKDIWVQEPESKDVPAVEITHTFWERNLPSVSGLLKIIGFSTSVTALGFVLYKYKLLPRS

- logP [1]: 1.17
- Log kw [2]: 1.17
- Ki [3]: 220 nM
SMILES: COC[C@H]1CN(c2ccc(OCC(C)O)cc2)C(=O)O1 (stereo partly drawn)

- logP [1]: 2.7
- Log kw [2]: 2.21
- Ki [3]: 170 nM
SMILES: COC[C@H]1CN(c2ccc(OCC[C@@H](C)OC)cc2)C(=O)O1

- logP [1]: 1.71
- Log kw [2]: 1.6
- Ki [3]: 6.5 nM
SMILES: COC[C@H]1CN(c2ccc(OCC[C@@H](C)O)cc2)C(=O)O1

- logP [1]: 1.13
- Log kw [2]: 1
- Ki [3]: 80 nM
SMILES: COC[C@H]1CN(c2ccc(CCO)cc2)C(=O)O1

Second part, the compound before the results:

SMILES: C=C(C)CCOc1ccc(N2C[C@H](COC)OC2=O)cc1
- logP [1]: 3.03
- Log kw [2]: 3.08
- Ki [3]: 28 nM

SMILES: COC[C@H]1CN(c2ccc(OCCCCO)cc2)C(=O)O1
- logP [1]: 1.84
- Log kw [2]: 1.58
- Ki [3]: 29 nM

SMILES: COC[C@H]1CN(c2ccc(OCCCC(C)O)cc2)C(=O)O1 (stereo partly drawn)
- logP [1]: 2.27
- Log kw [2]: 1.88
- Ki [3]: 13 nM

SMILES: COC[C@H]1CN(c2ccc(OCCC(C)=O)cc2)C(=O)O1
- logP [1]: 1.37
- Log kw [2]: 1.43
- Ki [3]: 46 nM

SMILES: COC[C@H]1CN(c2ccc(CCCO)cc2)C(=O)O1
- logP [1]: 1.27
- Log kw [2]: 1.3
- Ki [3]: 1.6 nM

SMILES: COC[C@H]1CN(c2ccc(OCCO)cc2)C(=O)O1
- logP [1]: 0.77
- Log kw [2]: 1
- Ki [3]: 390 nM

SMILES: COC[C@H]1CN(c2ccc(OCC[C@@H](O)C(F)(F)F)cc2)C(=O)O1 [BEFLOXATONE]
- logP [1]: 2.48
- Log kw [2]: 2.45
- Ki [3]: 3.5 nM
